Where two headings read alike, the source gives them in different places.
How the values were obtained:
[1] = biological target: T1, DDX3X ATPase (Homo sapiens, UniProt O00571); test: DDX3X ATPase assay (ADP-Glo); type: biochemical; conditions: recombinant human DDX3X, 50 μM ATP, mean ± SD of three experiments; for Ki: read-out: DDX3X ATPase Ki (apparent dissociation constant for inhibitor binding)
T1 construct: Recombinant his-tagged human full length DDX3X was cloned into the E. coli expression vector pET-30a(+); His tag; made in house; host or cells: Shuffle T7 E. coli
T1 sequence (O00571 whole entry): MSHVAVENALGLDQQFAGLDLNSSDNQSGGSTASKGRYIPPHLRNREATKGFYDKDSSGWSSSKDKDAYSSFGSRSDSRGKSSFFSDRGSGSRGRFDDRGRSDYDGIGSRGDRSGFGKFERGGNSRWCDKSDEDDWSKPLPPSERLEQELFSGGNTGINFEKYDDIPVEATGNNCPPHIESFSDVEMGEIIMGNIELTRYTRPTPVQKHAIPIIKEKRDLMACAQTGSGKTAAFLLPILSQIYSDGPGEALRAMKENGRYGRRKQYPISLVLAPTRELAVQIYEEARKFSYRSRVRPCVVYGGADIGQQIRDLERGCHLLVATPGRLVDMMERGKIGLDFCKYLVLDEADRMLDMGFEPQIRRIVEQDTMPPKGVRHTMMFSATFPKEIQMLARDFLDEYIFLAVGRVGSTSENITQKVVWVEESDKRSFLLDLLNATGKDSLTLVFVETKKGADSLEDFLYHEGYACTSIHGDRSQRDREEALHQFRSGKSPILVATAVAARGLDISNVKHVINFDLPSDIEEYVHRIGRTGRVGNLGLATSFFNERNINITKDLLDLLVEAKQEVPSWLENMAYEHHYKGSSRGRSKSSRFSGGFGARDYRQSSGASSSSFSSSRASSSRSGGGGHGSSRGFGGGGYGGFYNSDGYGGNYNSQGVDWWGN
Description: Recombinant his-tagged human full length DDX3X was cloned into the E. coli expression vector pET-30a(+). Shuffle T7 E. coli cells were transformed with the plasmid and grown at 37 °C up to OD600 = 0.7. DDX3X expression was induced with 0.5 mM IPTG at 15 °C O/N. The cells were harvested by centrifugation, lysed, and the crude extract centrifuged at 100.000xg for 60 min. at 4 °C in a Beckman centrifuge before being loaded onto a FPLC Ni-NTA column (GE Healthcare). Column was equilibrated in Buffer A (50 mM Tris-HCl pH 8.0, 250 mM NaCl, 25 mM Imidazole, and 20% glycerol). After extensive washing in Buffer A, the column was eluted with a linear gradient in Buffer A from 25 mM to 250 mM Imidazole. Proteins in the eluted fractions were visualized on SDS-PAGE and then tested for the presence of DDX3X by Western blot with anti-DDX3X A300-475A(BETHYL) at 1:2000 dilution in 5% milk. Fractions containing the purest DDX3X protein were pooled and stored at −80 °C.
The ATPase assay was carried out by using the commercial kit Promega (Milan, Italy), ADP-Glo^TM Kinase Assay. Reaction was performed in 30 mM TrisHCl pH 8, 9 mM MgCl2, 0.05 mg/mL BSA, 50 μM ATP, and 4 μM of recombinant DDX3X. Reaction was performed following the ADP-Glo^TM Kinase Assay Protocol and luminescence was measured with MicroBeta TriLux (Perkin Elmer, Milan, Italy).

[2] = Parallel Artificial Membrane Permeability Assay (PAMPA); type: in vitro ADME; conditions: pH 7.4, 5 h; for Papp at 5 h, 0.5 mM: room temperature, read-out: AppP (apparent permeability)
Description: Finally, we evaluated passive membrane permeability (AppP) while using Parallel Artificial Membrane Permeability Assay (PAMPA). The quantity of compound able to diffuse through a semipermeable artificial membrane was calculated by LC-MS-MS.
Donor solution (0.5 mM) was prepared by diluting 1 mM dimethylsulfoxide (DMSO) compound stock solution while using phosphate buffer (pH 7.4, 0.025 M). Filters were coated with 5 μL of a 1% (w/v) dodecane solution of phosphatidylcholine for intestinal permeability. Donor solution (150 μL) was added to each well of the filter plate. To each well of the acceptor plate was added 300 μL of solution (50% DMSO in phosphate buffer). All of the compounds were tested in three different plates on different days. The sandwich was incubated for 5 h at room temperature under gentle shaking. After the incubation time, the plates were separated, and samples were taken from both receiver and donor sides and analyzed while using LC with UV detection at 280 nm. LC analysis was performed with a PerkinElmer (series 200) instrument that was equipped with an UV detector (PerkinElmer 785A, UV/vis Detector). Chromatographic separation was conducted using a Polaris C18 column (150–4.6 mm, 5 μm particle size) at a flow rate of 0.8 mL min^−1 with a mobile phase composed of 60% ACN/40% H2O-formic acid 0.1% for all compounds. Permeability (Papp) was calculated according to the following equation with some modification to obtain permeability values in cm/s, (1) Papp=VDVA/(VD+VA)At−ln(1−r) where VA is the volume in the acceptor well, VD is the volume in the donor well (cm^3), A is the “effective area” of the membrane (cm^2), t is the incubation time (s), and r the ratio between drug concentration in the acceptor and equilibrium concentration of the drug in the total volume(VD + VA).
Drug concentration is estimated by using the peak area integration. Membrane retentions (%) were calculated according to the following equation:(2) %MR=[r−(D+A)]100/Eq where r is the ratio between drug concentration in the acceptor and equilibrium concentration, D, A, and Eq represented drug concentration in the donor, acceptor, and equilibrium solution, respectively.

[3] = Water solubility assay; type: physicochemical; conditions: 27 °C, thermodynamic from solid, 1 mg in 1 mL water
Description: […] After 24 h of stirring at 27 °C, the mixture was filtered and the quantity of solubilized compound determined by LC-MS-MS. […] By contrast, esters 30 and 31 due to their lipophilicity have values outside the recommended range […].
The appropriate (1 mg) was added to 1 mL of water. The sample was shaken in a shaker bath at room temperature for 24–36 h. The suspensions were filtered through a 0.45 μm nylon filter (Acrodisc, Sigma Aldrich, Milan, Italy) and the solubilized compound determined by LC-MS-MS assay. The determination was performed in triplicate. For the quantification, an LC-MS system consisting of a Varian apparatus (Varian Inc., Palo Alto, CA, USA), including a vacuum solvent degassing unit, two pumps (212-LC), a Triple Quadrupole MSD (Mod. 320-LC) mass spectrometer with ES interface, and Varian MS Workstation System Control Vers. 6.9 software, was used. Chromatographic separation was obtained while using a 3 μm particle size Pursuit C18 column (50 × 2.0 mm) (Varian). Column was equilibrated in Buffer B (aqueous solution of 0.1% formic acid) and eluted with a linear increase from 0% to 70% gradient of Buffer A (ACN) for 10 min. and subsequent increase up to 98% for additional 5 min. The instrument operated in positive mode and the following parameters were used: injection volume 5 μL, flow rate 0.3 mL/min, detector 1850 V, drying gas pressure 25.0 psi, desolvation temperature 300.0 °C, nebulizing gas 45.0 psi, needle 5000 V, and shield 600 V. Nebulizer gas and drying gas was Nitrogen. Argon was the collision gas at a pressure of 1.8 mTorr in the collision cell. Single compound quantification was performed in comparison with standard calibration curves in methanol.

[4] = Cytotoxicity assay in H9 cells (CellTiter-Glo 2.0); type: cell-based, human; conditions: human; non-infected H9 cells, 72 h
Description: (§1) Cytotoxicity in H9 cells was determined by using the CellTiter-Glo 2.0 assay (Promega). H9 cells were seeded at 40,000 cells/well in duplicate in the presence of serial two-fold dilutions of compounds (range 200–1.56 μM) and incubated for 72 h. Cell viability was calculated by measuring cellular ATP as a marker of metabolically active cells through a luciferase based chemical reaction and expressed as the concentration that reduce cell viability by 50%.

[5] = tested on: HIV-1 (NL4-3); test: Antiviral BiCycle assay, HIV-1 NL4-3 in H9 cells with TZM-bl readout; type: cell-based; conditions: 72 h, then TZM-bl reporter cells 48 h
Description: The antiviral activity was evaluated by measuring the half maximal inhibitory concentration (IC50) values against the HIV-1 wild-type reference strain NL4-3 in a TZM-bl cell line based phenotypic assay, named BiCycle Assay. The method includes a first round of infection of human T cell lymphoma derived clone H9 at multiplicity of infection of 0.03 in the presence of serial dilution of compounds in a 96-well plate. After 72 h, 50 microliters of supernatants from each well were used to infect the TZM-bl cell line, which allow the quantitative analysis of HIV infection by measuring the expression of the luciferase gene integrated in the genome of the cells under the control of HIV-1 LTR promoter.
After 48 h, dose-response curves were generated by measuring reporter gene expression in each well by using the Bright-Glo Luciferase Assay (Promega) through the GloMax Discovery reader (Promega). Relative luminescence units measured in each well were elaborated with the GraphPad Software v.6.0 to calculate IC50 values. All the viruses and cell lines were obtained through the NIH AIDS Reagent Program (www.aidsreagent.org).

[6] = tested on: H9 cells; test: Cytotoxicity assay in H9 cells (CellTiter-Glo 2.0); type: cell-based, human; conditions: CC50 in H9 cells versus anti-HIV-1 IC50
Description: as §1

[7] = tested on: HIV-1; parameters: method as in PMID 18834110; conditions: MT4 cells; read-out: EC50, inhibition of HIV-1 replication; cited from earlier work
[8] = biological target: DDX3X; parameters: method as in PMID 21698775; conditions: cited from earlier work
[9] = read-out: AqS (aqueous solubility)
[10] = read-out: AqS as Log of molar concentration (LogS) (converted)
[11] = Human immunodeficiency virus 1, NL43, H9 cells

Row | SMILES | Ki [1] | Percentage in parentheses beside AppP (membrane retention) [2] | Papp at 5 h, 0.5 mM [2] | solubility at 24 h [3, 9] | solubility at 24 h [3, 10] | CC50 at 72 h [4] | IC50 [5, 11] | further results
1 | COc1ccc(-c2nnc(N3C(=O)c4ccccc4C3=O)s2)cc1 [Compound 17, 2-(5-(4-Methoxyphenyl)-1,3,4-thiadiazol-2-yl)isoindoline-1,3-dione] | > 50 µM |  |  |  |  |  |  | DDX3X ATPase Ki (apparent dissociation constant for inhibitor binding) [1]: completely inactive
2 | COc1ccc(-c2nnc(NC(=O)c3ccccc3C(=O)O)s2)cc1 [Compound 23, 2-((5-(4-Methoxyphenyl)-1,3,4-thiadiazol-2-yl)carbamoyl)benzoic acid] | 1.3 ± 0.2 µM | 0% | < 0.1 ×10⁻⁶ cm/s | 3.3 µg/mL | 9.33 µM | > 200 µM | > 50 µM | HIV-1 (NL4-3) IC50 ([5]; H9 cells): inactive
3 | O=C(O)c1ccccc1C(=O)Nc1nnc(-c2ccc(O)cc2)s1 [Compound 24, 2-((5-(4-Hydroxyphenyl)-1,3,4-thiadiazol-2-yl)carbamoyl)benzoic acid] | 1.9 ± 0.4 µM | 0% | < 0.1 ×10⁻⁶ cm/s | 27.8 µg/mL | 83.2 µM | 125 µM | 3.9 µM | SI (selectivity index) [6]: 45; IC50 ([5]; H9 cells): 2.8 ± 1.5 µM
4 | O=C(O)c1ccccc1C(=O)Nc1nnc(-c2ccccc2Br)s1 [Compound 25, 2-((5-(2-Bromophenyl)-1,3,4-thiadiazol-2-yl)carbamoyl)benzoic acid] |  |  |  |  |  |  |  | DDX3X ATPase Ki (apparent dissociation constant for inhibitor binding) [1]: abolished
5 | CN(C)c1ccc(-c2nnc(NC(=O)c3ccccc3C(=O)O)s2)cc1 [Compound 27, 2-((5-(4-(Dimethylamino)phenyl)-1,3,4-thiadiazol-2-yl)carbamoyl)benzoic acid] | 11.9 ± 1.9 µM |  |  |  |  | 130 µM | > 50 µM | 
6 | O=C(O)c1ccccc1C(=O)Nc1nnc(-c2ccccc2[N+](=O)[O-])s1 [Compound 28, 2-((5-(2-Nitrophenyl)-1,3,4-thiadiazol-2-yl)carbamoyl)benzoic acid] | 18.3 ± 1.8 µM |  |  |  |  | 74 µM | 42.3 ± 5.2 µM | SI (selectivity index) [6]: 1.7
7 | COC(=O)c1ccccc1C(=O)Nc1nnc(-c2ccc(OC)cc2)s1 [Compound 29, Methyl 2-((5-(4-methoxyphenyl)-1,3,4-thiadiazol-2-yl)carbamoyl)benzoate] | 15.6 µM | 36% | 0.7 ×10⁻⁶ cm/s | 0.5 µg/mL | 1.35 µM | 45 µM |  | 
8 | CCOC(=O)c1ccccc1C(=O)Nc1nnc(-c2ccc(OC)cc2)s1 [Compound 30, Ethyl 2-((5-(4-methoxyphenyl)-1,3,4-thiadiazol-2-yl)carbamoyl)benzoate] | 20.1 ± 2.1 µM | 4.6% | 2.1 ×10⁻⁶ cm/s | < 0.1 µg/mL | > 1 µM | > 200 µM | > 50 µM | 
9 | CCCCOC(=O)c1ccccc1C(=O)Nc1nnc(-c2ccc(OC)cc2)s1 [Compound 31, Butyl 2-((5-(4-methoxyphenyl)-1,3,4-thiadiazol-2-yl)carbamoyl)benzoate] | 23.5 ± 2.5 µM | 25.9% | 6.1 ×10⁻⁶ cm/s | < 0.1 µg/mL | > 1 µM | 100 µM | 16 ± 10 µM | 
10 | COC(=O)c1ccccc1C(=O)Nc1nnc(-c2ccccc2[N+](=O)[O-])s1 [Compound 32, Methyl 2-((5-(2-nitrophenyl)-1,3,4-thiadiazol-2-yl)carbamoyl)benzoate] |  |  |  |  |  |  |  | DDX3X ATPase Ki (apparent dissociation constant for inhibitor binding) [1]: annulled enzymatic inhibition
11 | O=C(Nc1nnc(-c2ccccc2[N+](=O)[O-])s1)c1ccccc1S(=O)(=O)O [Compound 34, 2-((5-(2-Nitrophenyl)-1,3,4-thiadiazol-2-yl)carbamoyl)benzenesulfonic acid] | 35.4 ± 3.5 µM |  |  |  |  | 110 µM | > 50 µM | 
12 | Nc1ccccc1-c1nnc(NC(=O)c2ccccc2S(=O)(=O)O)s1 [Compound 35, 2-((5-(2-Aminophenyl)-1,3,4-thiadiazol-2-yl)carbamoyl)benzenesulfonic acid] | 20.1 ± 2.1 µM |  |  |  |  | 130 µM | > 50 µM | 
13 | Nc1ccccc1-c1nnc(NC(=O)c2ccccc2C(=O)O)s1 [Compound 36, 2-((5-(2-Aminophenyl)-1,3,4-thiadiazol-2-yl)carbamoyl)benzoic acid] |  |  |  |  |  |  |  | DDX3X ATPase Ki (apparent dissociation constant for inhibitor binding) [1]: total loss of inhibitory capability
14 | O=C(CN1C(=O)/C(=C/c2cccc(Br)c2)SC1=S)Nc1ccccc1O [FE15] |  |  |  |  |  |  |  | EC50 [7]: 86.7 µM
15 | O=C1/C(=C/c2c(NCCCO)nc3ccccn3c2=O)SC(=S)N1CCc1ccccc1 [FE109] |  |  |  |  |  |  |  | Ki [8]: 0.2 µM
